Patent publication US20150125528A1 (The Water Initiative, LLC, priority 2012, published 2015)

Assay: calcium hypochlorite stability temperature data
Assay type: physicochemical
Conditions: below approximately 120° C., 15 minute exposure
Excerpt: FIG. 2 illustrates calcium hypochlorite stability temperature data.

[Ca+2].[O-]Cl.[O-]Cl [calcium hypochlorite]
free chlorine concentration on heating: maintains its free chlorine concentration
